Measurements from patent publication US20050064021A1, “Medical dressings” (priority 2001, published 2005).

System: cells
Assay: cellular adherence to alginate, cell type not stated
Format: cell-based
Settings: lidocaine present with poloxamer

**Q.** `CCN(CC)CC(=O)Nc1c(C)cccc1C` [lidocaine] was tested. Which “cellular adherence properties of alginate” value did it give?
**A.** reduce the cellular adherence properties of alginate, for example, still further
